Experiment [1] deals with Escherichia coli. Briefly: Antimicrobial activity against Escherichia coli after 14 to 16 hrs. The format is functional.
Experiment [2] relates to Streptococcus pneumoniae. Briefly: Antimicrobial activity against penicillin-resistant Streptococcus pneumoniae after 14 to 16 hrs. The format is functional.
Experiment [3] has as its system B16-F10. Briefly: Cytotoxicity against mouse B16F10 cells after 3 to 6 hrs. The class given is functional, cell-based.
Experiment [4] has as its system Staphylococcus aureus. Briefly: Antimicrobial activity against methicillin-resistant Staphylococcus aureus after 14 to 16 hrs. The format is functional.
Experiment [5] relates to Staphylococcus aureus. As to the kind of experiment: Antimicrobial activity against methicillin-sensitive Staphylococcus aureus after 14 to 16 hrs. The format is functional.
The subject of experiment [6] is Enterococcus faecium. As to the kind of experiment: Antimicrobial activity against vancomycin-resistant Enterococcus faecium after 14 to 16 hrs. The format is functional.
The test system of experiment [7] is Enterococcus faecalis. As to the kind of experiment: Antimicrobial activity against vancomycin-sensitive Enterococcus faecalis after 14 to 16 hrs. The class given is functional.
Experiment [8] relates to Streptococcus pneumoniae. As to the kind of experiment: Antimicrobial activity against penicillin-sensitive Streptococcus pneumoniae after 14 to 16 hrs. The format is functional.

This is an account of results in ChEMBL document CHEMBL1158692, “Lajollamycin, a nitro-tetraene spiro-beta-lactone-gamma-lactam antibiotic from the marine actinomycete Streptomyces nodosus” (J Nat Prod, 2005).

≈ marks a conversion by molar mass, not a printed value.

Consider `COC(CC(C)C(O)/C=C/C=C/CNC(=O)C(C)(C)C(O)\C(C)=C/C=C\C=C\C(C)=C(/C)[N+](=O)[O-])C1(O)C(C)C(=O)N(C)C12C(=O)OC2C` (stereo not drawn) [LAJOLLAMYCIN], for which the MIC in experiment [1] was found to be 12 µg/mL (≈ 17.4 µM); in experiment [2], 1.5 µg/mL (≈ 2.18 µM); in experiment [4], 5 µg/mL (≈ 7.27 µM); in experiment [5] it was 4 µg/mL (≈ 5.82 µM); in experiment [6] it was 20 µg/mL (≈ 29.1 µM); in experiment [7], 14 µg/mL (≈ 20.4 µM). For the same compound, inhibition of growth in experiment [8] (MIC) required 2 µg/mL (≈ 2.91 µM). Also, in experiment [3], a half-maximal response (EC50) required 9.6 µM.

As usually defined, the MIC is the smallest concentration in the dilution series that meets the test's criterion for growth inhibition. Low readings indicate greater potency, high ones weaker potency. A word on the EC50: it is the concentration at which the effect is half-maximal. A lower EC50 goes with a more potent agent.
